In data set [1] the target is T1, α2,6(N)-sialyltransferases ST6GALI (Homo sapiens, UniProt P15907).
T1 construct: purchased RnDSystems.com (R&D Systems)
T1 sequence (P15907 1-406): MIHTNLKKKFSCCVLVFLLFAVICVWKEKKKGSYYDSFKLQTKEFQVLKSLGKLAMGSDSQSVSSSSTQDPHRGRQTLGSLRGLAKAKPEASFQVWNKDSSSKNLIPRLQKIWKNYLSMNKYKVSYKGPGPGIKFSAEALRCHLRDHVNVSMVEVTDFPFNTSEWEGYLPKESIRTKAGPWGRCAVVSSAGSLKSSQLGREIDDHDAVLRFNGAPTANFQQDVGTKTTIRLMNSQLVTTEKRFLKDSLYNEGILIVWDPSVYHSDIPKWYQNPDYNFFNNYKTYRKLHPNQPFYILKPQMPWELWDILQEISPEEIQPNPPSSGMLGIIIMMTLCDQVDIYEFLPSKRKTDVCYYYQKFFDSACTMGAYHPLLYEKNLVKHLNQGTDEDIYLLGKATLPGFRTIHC
Description: Sialyltransferase inhibition assay, ST6GALI (reverse-phase HPLC). The data set is classed as biochemical. Conditions: for IC50: α2,6-N-link. The method, then: (§1) The enzymes analyzed in the present study included rat ST3Gal(I), rat ST3Gal(III), and human ST6Gal(I). Rat ST3Gal(I) and rat ST3Gal(Ill), were purchased from Calbiochem®, while human ST6Gal(I) was purchased from RnDSystems.com.
(§2) Sialyltransferase inhibition assay (α2,6-N-ST) was performed as follows: Sialyltransferase activity was determined by measuring the level of the end product of sialylated saccharides with reverse-phase HPLC. The assay mixtures contained the following components: 200 mM MES buffer; 100 mM NaCl; 0.5 mM EDTA; 0.01% Triton X-100; 1.4 mU ST6GALI; 25 μM Galβ1-4GlcNAc; 1 mM CMP-Neu5Ac and different concentration of Sialyltransferase inhibitors to a total volume of 50 μl. The assay mixture was incubated at 37° C. for 15 mins and then quenched by heating up to 101° C. for 10 mins. The sialylated product is resolved with reversed-phase HPLC. Kinetic data were obtained by fitting the initial rate data to the nonlinear regression equation.
(§3) Effects of the present compounds on the activity of sialyltransferase, including α2,3(N)-sialyltransferase ST3GALIII, α2,6(N)-sialyltransferases ST6GALI, and α2,3(O)-sialyltransferase ST3GALI, were determined in accordance with procedures described in the “Materials and Methods” section, and results are summarized in Table 1.

Data set [2] has as its target T2, α2,3(O)-sialyltransferase ST3GALI (Rattus norvegicus, UniProt Q6H8N0).
T2 construct: purchased Calbiochem
T2 sequence (Q6H8N0 1-340): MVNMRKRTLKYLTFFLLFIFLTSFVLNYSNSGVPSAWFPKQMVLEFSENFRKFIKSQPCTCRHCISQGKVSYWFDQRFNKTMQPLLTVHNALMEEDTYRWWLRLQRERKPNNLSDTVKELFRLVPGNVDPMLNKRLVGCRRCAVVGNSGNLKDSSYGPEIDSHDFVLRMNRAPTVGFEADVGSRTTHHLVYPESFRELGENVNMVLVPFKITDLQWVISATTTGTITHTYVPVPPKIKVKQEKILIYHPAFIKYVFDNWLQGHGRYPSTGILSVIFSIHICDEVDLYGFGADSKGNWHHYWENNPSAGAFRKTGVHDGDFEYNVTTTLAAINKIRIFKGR
Briefly: Sialyltransferase inhibition assay, ST3GALI (reverse-phase HPLC). The data set is classed as biochemical. Conditions: for inhibition at 500 µM: measured at 500 μM; for inhibition at 500 µM / inhibition at 1000 µM: read-out: ST3GALI inhibition percentage; for inhibition at 1000 µM: measured at 1 mM. The method, then: as §1
as §2, with “mU ST3GALI; 2.5 mM T-antigen;” for “mU ST6GALI; 25 μM Galβ1-4GlcNAc;”, “to 101′C” for “to 101° C.”, “product was” for “product is”, “resolved by” for “resolved with”
as §3

The target in data set [3] is T3, α2,3(N)-sialyltransferase ST3GALIII (Rattus norvegicus, UniProt Q02734).
T3 construct: purchased Calbiochem
T3 sequence (Q02734 1-374): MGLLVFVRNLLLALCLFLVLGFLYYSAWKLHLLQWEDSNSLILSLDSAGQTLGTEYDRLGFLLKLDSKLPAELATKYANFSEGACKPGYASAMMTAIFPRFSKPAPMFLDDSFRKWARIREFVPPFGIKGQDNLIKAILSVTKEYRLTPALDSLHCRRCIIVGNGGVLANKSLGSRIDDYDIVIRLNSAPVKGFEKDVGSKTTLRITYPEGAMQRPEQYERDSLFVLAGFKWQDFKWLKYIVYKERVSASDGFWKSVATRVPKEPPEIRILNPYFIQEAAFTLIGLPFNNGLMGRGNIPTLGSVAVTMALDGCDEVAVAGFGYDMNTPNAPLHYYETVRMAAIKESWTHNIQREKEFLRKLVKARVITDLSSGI
Briefly: Sialyltransferase activity assay, ST3GALIII. It is filed as biochemical. Conditions: α2,3-N-link.

Data set [4] addresses T3, α2,3(N)-sialyltransferase ST3GALIII. Description: Sialyltransferase activity assay, ST3GALIII. It is filed as biochemical. The method, then: as §1
as §2, with “mU ST3GALI; 2.5 mM T-antigen;” for “mU ST6GALI; 25 μM Galβ1-4GlcNAc;”, “to 101′C” for “to 101° C.”, “product was” for “product is”, “resolved by” for “resolved with”
as §2, §3

For the next data set, the system named is MDA-MB-231 cells. Briefly: Transwell migration assay, breast cancer cells. It is filed as cell-based, human. The source says: Migration assays were done using a transwell, in which a polycarbonate filter pre-coated with Matrigel (8-μm pores, Millicell; Millipore, Billerica, Mass.) was inserted therein. […] Cells that had migrated to the underside of the inserted filter were stained with hematoxylin solution. The cells in the upper side of the inserted membrane were rubbed with a cotton swab. The migrated cells on the underside were pictured in a 200× magnification field and quantified.

Here are results for four molecules from US10889611B2, “Sialyltransferase inhibitors and uses thereof” (Academia Sinica, priority 2015, dated 2021).

Where “and” joins values, the source holds several entries; their conditions need not be identical. Equal values may be shown once. Read-outs that look alike come from different tables or passages of the source. Marks after values point to notes of the source that are not given here.

Molecule `C[C@H](CCC(=O)OCCN=[N+]=[N-])C1CC[C@H]2[C@@H]3CC[C@@H]4C[C@H](OC(=O)[C@H](CC(=O)O)Nc5ccc([N+](=O)[O-])c6nonc56)CC[C@]4(C)[C@H]3CC[C@]12C` (stereo partly drawn) [Compound 1, (3S)-4-(((3R,5R,8R,9S,10S,13R,14S)-17-((R)-5-(2-azidoethoxy)-5-oxopentan-2-yl)-10,13-dimethylhexadecahydro-1H-cyclopenta[a]phenanthren-3-yl)oxy)-3-((7-nitrobenzo[c][1,2,5]oxadiazol-4-yl)amino)-4-oxobutanoic acid] returned a melting point of 78 to 79 °C. For the same molecule, the IC50 in data set [1] (IC50 (μM) ST6GALI) was 4.2 µM and 4.33 µM. For the same molecule, in data set [2], the inhibition at 500 µM is 0% and the inhibition at 1000 µM amounted to 74%. The IC50 in data set [3] (IC50 (μM) ST3GALIII) is 0.8 µM and 0.77 µM.

For `C[C@H](CCC(=O)OCCOCCOCCOCCN=[N+]=[N-])C1CC[C@H]2[C@@H]3CC[C@@H]4C[C@H](OC(=O)[C@H](CC(=O)O)Nc5ccc([N+](=O)[O-])c6nonc56)CC[C@]4(C)[C@H]3CC[C@]12C` (stereo partly drawn) [Compound 4, (3S)-4-(((3R,5R,8R,9S,10S,13R,14S)-17-((R)-1-azido-13-oxo-3,6,9,12-tetraoxaheptadecan-6-yl)-10,13-dimethylhexadecahydro-1H-cyclopenta[a]phenanthren-3-yl)oxy)-3-((7-nitrobenzo[c][1,2,5]oxadiazol-4-yl)amino)-4-oxobutanoic acid], in data set [1], the “selectivity ratio ST3GALI/ST6GALI” value is on record as over 102. For the same molecule, the IC50 in data set [1] (IC50 (μM) ST6GALI) is 4.9 ± 0.08 µM; in the data set with MDA-MB-231 cells (Homo sapiens, MDA-MB-231, breast cancer cells treated with 2-30 μM, transwell, 16 hours, read-out: IC50 on migration) it was 12 ± 0.13 µM; in data set [3] (IC50 (μM) ST3GALIII), 1.01 ± 0.07 µM. The “selectivity ratio ST3GALI/ST3GALIII” value in data set [4] (calculated based on the concentration, 500 μM, of ST inhibitor used toward α2,3-O-ST3GALI, listed as 4 (FCW66)) was >495^d; in data set [4] (calculated based on the concentration, 1 mM, of ST inhibitor used toward α2,3-O-ST3GALI, listed as 4 (FCW66)), “(≤990)^e”. For the same molecule, in data set [2], the inhibition at 500 µM was determined as 0%. In addition, the inhibition at 1000 µM in data set [2] stood at 50%. Also, in the data set with MDA-MB-231 cells (20 μM, FIG. 1), the “migration of MDA-MD-231 cells” value is “inhibited the migration”.

Take `C[C@H](CCC(=O)OCCOCCOCCOCCOCCN=[N+]=[N-])C1CC[C@H]2[C@@H]3CC[C@@H]4C[C@H](OC(=O)[C@H](CC(=O)O)Nc5ccc([N+](=O)[O-])c6nonc56)CC[C@]4(C)[C@H]3CC[C@]12C` (stereo partly drawn) [Compound 5, (3S)-4-(((3R,5R,8R,9S,10S,13R,14S)-17-((R)-1-azido-16-oxo-3,6,9,12,15-pentaoxaicosan-19-yl)-10,13-dimethylhexadecahydro-1H-cyclopenta[a]phenanthren-3-yl)oxy)-3-((7-nitrobenzo[c][1,2,5]oxadiazol-4-yl)amino)-4-oxobutanoic acid]: the “selectivity ratio ST3GALI/ST6GALI” value in data set [1] is over 99. Further, the IC50 in data set [1] (IC50 (μM) ST6GALI) was found to be 5.03 ± 0.2 µM; in data set [3] (IC50 (μM) ST3GALIII) it was 0.97 ± 0.14 µM. For the same molecule, the “selectivity ratio ST3GALI/ST3GALIII” value in data set [4] (calculated based on the concentration, 500 μM, of ST inhibitor used toward α2,3-O-ST3GALI) is recorded as >516^d. Moreover, in data set [2], the inhibition at 500 µM was found to be 0%.

For the molecule `C[C@H](CCC(=O)O)[C@H]1CC[C@H]2[C@@H]3CC[C@@H]4C[C@H](OC(=O)[C@@H](N)CC(=O)O)CC[C@]4(C)[C@H]3CC[C@]12C` [Lith-O-Asp, reference compound], the “selectivity ratio ST3GALI/ST6GALI” value in data set [1] amounted to 3. For the same molecule, the IC50 in data set [1] (read-out: IC50 (μM) ST6GALI) was determined as 15.78 ± 0.13 µM; in data set [2] (α2,3-O-link), 39 ± 1.26 µM; in data set [3] (read-out: IC50 (μM) ST3GALIII) it was 12 µM. Also, the “selectivity ratio ST3GALI/ST3GALIII” value in data set [4] (comparative controls with measured ST3GALI IC50) is reported as 3.
